Results on one molecule are retold here after US12150930B2 (BDR Pharmaceuticals Int'l Pvt. Ltd., priority 2022, dated 2024).

One data set deals with CACO2 monolayers. The settings on record: across CACO2 monolayers; cited from earlier work.
The conditions of data set [1]: cited from earlier work.
The nature of data set [2]: Stability of enzalutamide standard solution. Type of data set: physicochemical. The settings on record: 25° C., in ACN diluted with dissolution medium. As to the method: In that, 25 ml of ACN was dissolved and diluted with ACN to volume. From this solution, 2 ml of solution was transferred to a 100 ml volumetric flask and diluted with dissolution medium to volume. The standard solution was found stable at 25° C. for 27 h. Sample solution was prepared by adding a 5 ml sample of the present invention in 900 ml of dissolution medium. Further, 2.0 ml of this solution was diluted with 100 ml of dissolution medium.

The nature of data set [3]: API solubility study in solubilizers/solvents/co-solvents (formulation trials). Type of data set: physicochemical. The settings on record: ethanol added after addition of API. The text has this:
During the selection of excipients for formulation of Enzalutamide oral solution, first it is required to select the excipients which are not covered by patent of Enzalutamide capsules and also excipients need to meet IIG limits and useful for product development.
In the present invention selection of Solubilizers based on different trials which are like Labrafac Lipophile WL-1349, Labrafil M1944 Cs, Maisine CC, Kolliphor RH 40, Tween 80, Castor Oil, Migloyl 812 etc.
Further, here in the present invention selection of Co-solvents also based on trials and experiments which are Propylene glycol, Polyethylene glycol 400, Poly ethylene glycol 200, Ethanol, Glycerine, Maisine CC etc.
Based on the API solubility study combination of Kolliphor RH 40 with Ethanol and Polyethylene 400 was taken for further study. […]
Process for the Preparation: • 1. Dispensed quantity of Polyoxyl 40 hydrogenated castor oil was taken and started heating with maintained temperature of 45° C. of product. Further, Dispensed quantity of glyceryl monolinoleate was added to material of above step under stirring mixing/homogenization process. • 2. […] Further, then dispensed quantity of Ethanol was added to above step of material and continued process of stirring/homogenization then added dispensed quantity of propylene glycol and continued the process till Enzalutamide was dissolved. […]

Turning to `CNC(=O)c1ccc(N2C(=S)N(c3ccc(C#N)c(C(F)(F)F)c3)C(=O)C2(C)C)cc1F` [Enzalutamide], in the data set with CACO2 monolayers, the “mean apparent permeability coefficient” value was 31 ×10⁻⁶ cm/s. In addition, the “Biopharmaceutics Classification System (BCS) class” value in data set [1] (low solubility and high permeability) is on record as “Class 2”. Moreover, the “effect of pH on enzalutamide solubility” value in data set [1] (physiological pH range) is recorded as “not affected by pH”. In addition, the “time for which the standard solution was found stable” value in data set [2] came to 27 h. For the same molecule, the “API solubilized during procedure” value in data set [3] is listed as “approx. 80%”.
